Laboratory results as given in patent US9801880B2, “Use of kinase inhibitors” (BerGenBio AS, priority 2013, dated 2017).

How the values were obtained:
c-Kit (V560G) = target: T1, c-Kit (V560G) (Homo sapiens, UniProt P10721, V560G); assay: KinaseProfiler kinase activity assay; format: biochemical
T1 construct: purchased EMD Millipore Corp. (KinaseProfiler service)
Procedure: (§5) KinaseProfiler™ assays (EMD Millipore Corp. Billerica, Mass., USA) are radioligand binding assays with purified or partially-purified human kinases. Most of the KinaseProfiler™ assays are conducted in 20 mM MOPS, 1 mM EDTA, 0.01% Brij-35, 5% Glycerol, 0.1% b-mercaptoethanol, 1 mg/mL BSA. The assay involves the transfer of ^32P from γ-^32P-ATP to the target peptide, followed by washing and trapping of the labeled peptide on a filter. The concentration of γ-^32P-ATP used was at the established Km for ATP.

c-Kit (V654A) = target: T2, c-Kit (V654A) (Homo sapiens, UniProt P10721, V654A); assay: KinaseProfiler kinase activity assay; format: biochemical
T2 construct: purchased EMD Millipore Corp. (KinaseProfiler service)
T2 sequence (P10721 26-976 V654A): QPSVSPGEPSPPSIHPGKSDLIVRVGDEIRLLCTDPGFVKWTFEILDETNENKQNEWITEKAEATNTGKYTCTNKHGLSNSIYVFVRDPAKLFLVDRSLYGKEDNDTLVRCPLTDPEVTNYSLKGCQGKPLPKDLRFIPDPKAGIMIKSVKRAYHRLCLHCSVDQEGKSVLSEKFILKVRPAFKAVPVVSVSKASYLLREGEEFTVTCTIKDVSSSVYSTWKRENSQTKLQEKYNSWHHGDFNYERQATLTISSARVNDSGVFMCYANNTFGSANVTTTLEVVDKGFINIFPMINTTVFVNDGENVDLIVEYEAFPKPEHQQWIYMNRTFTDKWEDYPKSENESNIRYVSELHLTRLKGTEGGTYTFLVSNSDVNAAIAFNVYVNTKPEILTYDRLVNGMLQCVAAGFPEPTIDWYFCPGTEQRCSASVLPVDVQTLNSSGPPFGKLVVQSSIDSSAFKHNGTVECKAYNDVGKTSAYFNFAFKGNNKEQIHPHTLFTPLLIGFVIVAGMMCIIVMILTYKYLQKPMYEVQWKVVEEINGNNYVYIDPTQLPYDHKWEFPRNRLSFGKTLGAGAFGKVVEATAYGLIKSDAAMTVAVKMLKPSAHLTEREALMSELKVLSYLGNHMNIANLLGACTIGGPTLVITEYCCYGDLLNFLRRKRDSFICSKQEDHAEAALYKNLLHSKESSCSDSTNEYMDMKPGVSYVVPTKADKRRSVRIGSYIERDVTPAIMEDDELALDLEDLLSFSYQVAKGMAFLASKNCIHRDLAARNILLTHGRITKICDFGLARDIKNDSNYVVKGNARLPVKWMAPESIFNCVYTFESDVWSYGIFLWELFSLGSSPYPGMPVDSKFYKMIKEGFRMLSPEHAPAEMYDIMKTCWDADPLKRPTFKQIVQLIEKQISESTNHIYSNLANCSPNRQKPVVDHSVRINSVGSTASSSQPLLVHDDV
Procedure: as §5

[1] = system: Flt3 mutations D835H, D835Y, K663Q, and A829P; assay: Inhibition of Flt3 mutations (biochemical assays, format not stated)
Text: (§1) A summary is provided below.

Abl (T315I) [2] = target: T3, Abl (T315I) (Homo sapiens, UniProt P00519, T315I); assay: KinomeScan competition binding assay; set-up: purchased DiscoveRx Corporation (KinomeScan service)
Text: (§2) Detailed assay methodologies can be found in the relevant references cited herein, or in the KinaseProfiler Service Assay Protocols (v54, 2011) available from EMD Millipore (www.emdmillipore.com), or from the KinomeScan website (www.kinomescan.com), as appropriate. (For a more detailed description of KINOMEscan's assay technology, see: Fabian et al. A small molecule-kinase interaction map for clinical kinase inhibitors. Nat. Biotechnol. 23, 329-336 (2005)). A summary is provided below.
(§3) KinomeScan™ assays (DiscoveRx Corporation, San Diego, Calif., USA) are active-site-directed competition binding assays. […] The amount of kinase captured in test versus control samples is determined by using a qPCR method that detects the associated DNA label on each kinase molecule. Dissociation constants (Kd) for test compound-kinase interactions are calculated by measuring the amount of kinase captured on the solid support as a function of the test compound concentration.

Abl(H396P) [3] = target: T4, Abl(H396P) (Homo sapiens, UniProt P00519, H396P); assay: KinomeScan competition binding assay; set-up: purchased DiscoveRx Corporation (KinomeScan service)
Text: as §2, §3

Abl(Q252H) [4] = target: T5, Abl(Q252H) (Homo sapiens, UniProt P00519, Q252H); assay: KinomeScan competition binding assay; set-up: purchased DiscoveRx Corporation (KinomeScan service)
Text: as §2, §3

Abl(Y253F) [5] = target: T6, Abl(Y253F) (Homo sapiens, UniProt P00519, Y253F); assay: KinomeScan competition binding assay; set-up: purchased DiscoveRx Corporation (KinomeScan service)
Text: as §2, §3

Flt1 = Flt1 (Homo sapiens, UniProt P17948); assay: KinomeScan competition binding assay; set-up: purchased DiscoveRx Corporation (KinomeScan service)
Text: as §2, §3

Flt3 = Flt3 (Homo sapiens, UniProt P36888); assay: KinomeScan competition binding assay; set-up: purchased DiscoveRx Corporation (KinomeScan service); conditions: Flt3 wild-type
Sequence of Flt3 (P36888 27-993): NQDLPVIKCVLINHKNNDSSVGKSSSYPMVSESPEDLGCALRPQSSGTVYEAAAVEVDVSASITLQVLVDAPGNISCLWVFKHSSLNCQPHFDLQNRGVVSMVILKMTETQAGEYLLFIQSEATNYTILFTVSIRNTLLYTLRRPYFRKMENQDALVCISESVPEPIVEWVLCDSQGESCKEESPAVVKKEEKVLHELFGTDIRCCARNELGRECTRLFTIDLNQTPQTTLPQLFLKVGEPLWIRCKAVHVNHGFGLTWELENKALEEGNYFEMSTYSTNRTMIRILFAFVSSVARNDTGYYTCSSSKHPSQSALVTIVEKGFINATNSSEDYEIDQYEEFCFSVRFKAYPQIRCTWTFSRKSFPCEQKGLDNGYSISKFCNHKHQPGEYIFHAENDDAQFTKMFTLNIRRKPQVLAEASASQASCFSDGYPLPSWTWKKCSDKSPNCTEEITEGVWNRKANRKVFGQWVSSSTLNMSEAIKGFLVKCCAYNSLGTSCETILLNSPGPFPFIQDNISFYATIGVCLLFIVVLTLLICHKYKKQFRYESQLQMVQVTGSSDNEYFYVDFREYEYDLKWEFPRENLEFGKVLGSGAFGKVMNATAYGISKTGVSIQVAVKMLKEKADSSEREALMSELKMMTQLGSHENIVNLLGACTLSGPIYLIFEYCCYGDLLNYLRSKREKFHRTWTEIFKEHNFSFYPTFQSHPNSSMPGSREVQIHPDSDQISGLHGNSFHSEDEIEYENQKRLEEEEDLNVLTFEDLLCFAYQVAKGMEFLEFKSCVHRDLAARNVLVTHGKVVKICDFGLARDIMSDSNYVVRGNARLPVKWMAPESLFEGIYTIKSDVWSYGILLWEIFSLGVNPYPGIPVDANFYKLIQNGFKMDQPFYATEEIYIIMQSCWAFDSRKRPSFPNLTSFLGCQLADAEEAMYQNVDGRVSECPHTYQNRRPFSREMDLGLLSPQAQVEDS
Text: as §2, §3

Ret (V804L) = Ret (V804L) (Homo sapiens, UniProt P07949, V804L); assay: KinomeScan competition binding assay; set-up: purchased DiscoveRx Corporation (KinomeScan service)
Text: as §2, §3

Ret (V804M) = Ret (V804M) (Homo sapiens, UniProt P07949, V804M); assay: KinomeScan competition binding assay; set-up: purchased DiscoveRx Corporation (KinomeScan service)
Sequence of Ret (V804M) (P07949 29-1114 V804M): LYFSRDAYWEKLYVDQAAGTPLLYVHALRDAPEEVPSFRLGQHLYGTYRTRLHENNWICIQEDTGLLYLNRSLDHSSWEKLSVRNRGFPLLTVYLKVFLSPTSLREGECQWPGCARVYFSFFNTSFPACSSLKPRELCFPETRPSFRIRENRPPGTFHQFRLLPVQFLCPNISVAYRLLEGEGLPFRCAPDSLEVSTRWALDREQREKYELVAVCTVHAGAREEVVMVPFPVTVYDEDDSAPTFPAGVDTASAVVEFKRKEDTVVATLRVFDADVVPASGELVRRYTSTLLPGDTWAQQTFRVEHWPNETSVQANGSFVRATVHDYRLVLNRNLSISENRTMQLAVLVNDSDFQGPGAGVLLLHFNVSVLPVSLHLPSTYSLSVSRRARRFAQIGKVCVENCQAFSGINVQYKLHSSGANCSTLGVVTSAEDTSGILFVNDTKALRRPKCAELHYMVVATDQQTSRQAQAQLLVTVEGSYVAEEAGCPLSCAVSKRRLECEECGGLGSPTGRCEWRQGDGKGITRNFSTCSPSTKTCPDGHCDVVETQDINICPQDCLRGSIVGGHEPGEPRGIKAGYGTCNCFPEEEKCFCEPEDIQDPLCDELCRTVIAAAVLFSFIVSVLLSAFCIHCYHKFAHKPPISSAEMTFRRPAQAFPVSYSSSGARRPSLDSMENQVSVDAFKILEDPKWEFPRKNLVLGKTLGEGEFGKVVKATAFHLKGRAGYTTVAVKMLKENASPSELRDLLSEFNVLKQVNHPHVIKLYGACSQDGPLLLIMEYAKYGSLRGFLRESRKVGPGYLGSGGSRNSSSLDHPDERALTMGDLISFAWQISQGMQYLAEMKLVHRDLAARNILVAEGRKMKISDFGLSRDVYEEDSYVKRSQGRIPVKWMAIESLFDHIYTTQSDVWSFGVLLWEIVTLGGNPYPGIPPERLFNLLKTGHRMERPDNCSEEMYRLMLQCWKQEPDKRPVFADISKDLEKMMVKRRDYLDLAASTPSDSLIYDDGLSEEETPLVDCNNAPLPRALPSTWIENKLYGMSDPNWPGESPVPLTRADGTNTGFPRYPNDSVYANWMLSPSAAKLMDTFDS
Text: as §2, §3

Tyro3 = Tyro3 (Homo sapiens, UniProt Q06418); assay: KinomeScan competition binding assay; set-up: purchased DiscoveRx Corporation (KinomeScan service)
Sequence of Tyro3 (Q06418 41-890): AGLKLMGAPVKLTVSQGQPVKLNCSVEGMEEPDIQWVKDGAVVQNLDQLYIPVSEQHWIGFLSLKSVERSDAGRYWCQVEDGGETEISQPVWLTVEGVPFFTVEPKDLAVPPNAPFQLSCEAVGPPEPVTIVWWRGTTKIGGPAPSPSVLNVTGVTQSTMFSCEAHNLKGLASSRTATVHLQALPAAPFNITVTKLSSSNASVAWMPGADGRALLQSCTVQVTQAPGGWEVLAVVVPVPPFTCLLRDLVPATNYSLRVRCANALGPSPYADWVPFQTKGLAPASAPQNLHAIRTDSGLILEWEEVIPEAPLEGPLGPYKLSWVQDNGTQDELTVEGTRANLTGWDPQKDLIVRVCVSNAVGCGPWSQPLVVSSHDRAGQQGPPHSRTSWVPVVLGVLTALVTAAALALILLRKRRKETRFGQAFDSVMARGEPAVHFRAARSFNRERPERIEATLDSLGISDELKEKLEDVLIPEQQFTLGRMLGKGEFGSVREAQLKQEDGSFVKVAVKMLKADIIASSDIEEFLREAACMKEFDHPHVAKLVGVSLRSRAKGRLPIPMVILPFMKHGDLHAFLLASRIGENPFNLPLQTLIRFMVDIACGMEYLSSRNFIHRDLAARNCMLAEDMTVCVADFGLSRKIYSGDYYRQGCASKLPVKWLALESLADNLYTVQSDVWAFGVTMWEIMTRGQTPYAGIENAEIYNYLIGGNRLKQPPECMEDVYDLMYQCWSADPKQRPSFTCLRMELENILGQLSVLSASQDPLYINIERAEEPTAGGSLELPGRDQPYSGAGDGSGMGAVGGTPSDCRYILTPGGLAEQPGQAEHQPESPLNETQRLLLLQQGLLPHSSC
Text: as §2, §3

Wee1 = Wee1 (Homo sapiens, UniProt P30291); assay: KinomeScan competition binding assay; set-up: purchased DiscoveRx Corporation (KinomeScan service)
Sequence of Wee1 (P30291 whole entry): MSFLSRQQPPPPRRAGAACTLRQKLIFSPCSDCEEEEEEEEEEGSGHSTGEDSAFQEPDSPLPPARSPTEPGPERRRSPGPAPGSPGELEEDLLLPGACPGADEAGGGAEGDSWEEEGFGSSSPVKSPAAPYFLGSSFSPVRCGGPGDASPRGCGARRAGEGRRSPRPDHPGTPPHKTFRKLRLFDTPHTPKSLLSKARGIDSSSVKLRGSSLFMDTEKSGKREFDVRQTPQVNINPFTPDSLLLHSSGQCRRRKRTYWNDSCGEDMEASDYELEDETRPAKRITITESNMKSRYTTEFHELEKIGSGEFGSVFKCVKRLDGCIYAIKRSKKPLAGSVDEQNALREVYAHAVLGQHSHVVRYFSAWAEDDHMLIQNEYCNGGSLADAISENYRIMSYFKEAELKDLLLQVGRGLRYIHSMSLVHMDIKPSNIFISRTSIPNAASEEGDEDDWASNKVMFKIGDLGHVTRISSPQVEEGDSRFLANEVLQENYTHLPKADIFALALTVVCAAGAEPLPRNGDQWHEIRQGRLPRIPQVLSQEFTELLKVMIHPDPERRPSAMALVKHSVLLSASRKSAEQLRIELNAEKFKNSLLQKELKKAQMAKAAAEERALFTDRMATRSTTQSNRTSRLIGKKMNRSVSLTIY
Text: as §2, §3

Yes = Yes (Homo sapiens, UniProt P07947); assay: KinomeScan competition binding assay; set-up: purchased DiscoveRx Corporation (KinomeScan service)
Sequence of Yes (P07947 whole entry): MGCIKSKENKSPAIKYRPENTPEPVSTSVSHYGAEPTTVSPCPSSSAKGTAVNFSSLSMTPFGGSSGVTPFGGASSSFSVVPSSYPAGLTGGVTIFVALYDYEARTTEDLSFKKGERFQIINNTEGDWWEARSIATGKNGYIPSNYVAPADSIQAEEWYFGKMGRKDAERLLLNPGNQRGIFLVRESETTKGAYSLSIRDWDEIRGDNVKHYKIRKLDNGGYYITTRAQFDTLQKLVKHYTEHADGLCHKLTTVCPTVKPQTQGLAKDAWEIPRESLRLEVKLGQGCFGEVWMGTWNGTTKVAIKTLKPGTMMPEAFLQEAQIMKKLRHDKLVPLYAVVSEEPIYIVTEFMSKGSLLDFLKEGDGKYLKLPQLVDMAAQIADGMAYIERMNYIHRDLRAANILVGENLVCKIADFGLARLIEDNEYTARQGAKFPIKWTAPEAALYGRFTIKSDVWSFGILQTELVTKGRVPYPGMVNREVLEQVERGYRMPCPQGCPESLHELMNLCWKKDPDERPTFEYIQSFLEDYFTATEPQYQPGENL
Text: as §2, §3

Abl (T315I) [6] = target: T3, Abl (T315I); assay: KinaseProfiler kinase activity assay; format: biochemical; set-up: purchased EMD Millipore Corp. (KinaseProfiler service); conditions: ATP at Km
Text: as §2
(§4) KinaseProfiler™ assays (EMD Millipore Corp. Billerica, Mass., USA) are […] with purified or partially-purified human kinases. Most of the KinaseProfiler™ assays are conducted in 20 mM MOPS, 1 mM EDTA, 0.01% Brij-35, 5% Glycerol, 0.1% b-mercaptoethanol, 1 mg/mL BSA. The assay involves the transfer of ^32P from γ-^32P-ATP to the target peptide, followed by washing and trapping of the labeled peptide on a filter. The concentration of γ-^32P-ATP used was at the established Km for ATP.

Abl(H396P) [7] = target: T4, Abl(H396P); assay: KinaseProfiler kinase activity assay; format: biochemical; set-up: purchased EMD Millipore Corp. (KinaseProfiler service); conditions: ATP at Km
Text: as §2, §4

Abl(M351T) = Abl(M351T) (Homo sapiens, UniProt P00519, M351T); assay: KinaseProfiler kinase activity assay; format: biochemical; set-up: purchased EMD Millipore Corp. (KinaseProfiler service); conditions: ATP at Km
Text: as §2, §4

Abl(Q252H) [8] = target: T5, Abl(Q252H); assay: KinaseProfiler kinase activity assay; format: biochemical; set-up: purchased EMD Millipore Corp. (KinaseProfiler service); conditions: ATP at Km
Text: as §2, §4

Abl(Y253F) [9] = target: T6, Abl(Y253F); assay: KinaseProfiler kinase activity assay; format: biochemical; set-up: purchased EMD Millipore Corp. (KinaseProfiler service); conditions: ATP at Km
Text: as §2, §4

c-Kit = c-Kit (Homo sapiens, UniProt P10721); assay: KinaseProfiler kinase activity assay; format: biochemical; set-up: purchased EMD Millipore Corp. (KinaseProfiler service)
Procedure: as §5

c-Kit (D816H) = c-Kit (D816H) (Homo sapiens, UniProt P10721, D816H); assay: KinaseProfiler kinase activity assay; format: biochemical; set-up: purchased EMD Millipore Corp. (KinaseProfiler service)
Procedure: as §1, §4

c-Kit (D816V) = c-Kit (D816V) (Homo sapiens, UniProt P10721, D816V); assay: KinaseProfiler kinase activity assay; format: biochemical; set-up: purchased EMD Millipore Corp. (KinaseProfiler service)
Sequence of c-Kit (D816V) (P10721 26-976 D816V): as the sequence (P10721 26-976 V654A) above, with A629V, D791V counted along it
Procedure: as §5

For `Nc1nc(Nc2ccc3c(c2)CC[C@@H](N2CCCC2)CC3)nn1-c1cc2c(nn1)-c1ccccc1CCC2` [Compound A, 1-(6,7-dihydro-5H-benzo[6,7]cyclohepta[1,2-c]pyridazine-3-yl)-N^3-(7-(S)-(pyrrolidin-1-yl)-6,7,8,9-tetrahydro-5H-benzo[7]annulene-2-yl)-1H-1,2,4-triazole-3,5-diamine], the IC50 (c-Kit (V560G)) was 0.045 µM, the IC50 (c-Kit (V654A)) was 0.286 µM and the “inhibition range, Flt3 mutations” value [1] was 8 to 29 nM. For the same molecule, the Kd (Abl (T315I) [2]) was 10 nM, the Kd (Abl(H396P) [3]) was 57 nM and the Kd (Abl(Q252H) [4]) was 112 nM. For the same molecule, the Kd (Abl(Y253F) [5]) was 18 nM, the Kd (Flt1) was 400 nM and the Kd (Flt3) was 50 nM. The Kd (Ret (V804L)) was 90 nM, the Kd (Ret (V804M)) was 72 nM and the Kd (Tyro3) was > 1000 nM. For the same molecule, the Kd (Wee1) was 17 nM, the Kd (Yes) was 810 nM and the IC50 (Abl (T315I) [6]) was 4 nM. The IC50 (Abl(H396P) [7]) was 22 nM, the IC50 (Abl(M351T)) was 32 nM and the IC50 (Abl(Q252H) [8]) was 16 nM. It also gave an IC50 (Abl(Y253F) [9]) of 26 nM, an IC50 (c-Kit) of 1.28 µM and an IC50 (c-Kit (D816H)) of 0.008 µM. It also gave an IC50 (c-Kit (D816V)) of 0.177 µM.
